Columns and labels:
human CB2 receptor = human CB2 receptor (Homo sapiens (Human), UniProt P34972); experiment: cAMP assay, CHO cells expressing human CB2 receptors; format: cell-based; conditions: functional cAMP assay, CHO cells expressing human CB2; read-out: human CB2 EC50
Experimental: (§1) CHO cells expressing human CB1 or CB2 receptors are seeded 17-24 hours prior to the experiment 50.000 cells per well in a black 96 well plate with flat clear bottom (Corning Costar #3904) in DMEM (Invitrogen No. 31331), lx HT supplement, with 10% fetal calf serum and incubated at 5% CO2 and 37° C. in a humidified incubator. The growth medium was exchanged with Krebs Ringer Bicarbonate buffer with 1 mM IBMX and incubated at 30° C. for 30 min. Compounds were added to a final assay volume of 100 μl and incubated for 30 min at 30° C. Using the cAMP-Nano-TRF detection kit the assay (Roche Diagnostics) was stopped by the addition of 50 μl lysis reagent (Tris, NaCl, 1.5% Triton X100, 2.5% NP40, 10% NaN3) and 50 μl detection solutions (20 μM mAb Alexa700-cAMP 1:1, and 48 μM Ruthenium-2-AHA-cAMP) and shaken for 2 h at room temperature. The time-resolved energy transfer is measured by a TRF reader (Evotec Technologies GmbH), equipped with a ND:YAG laser as excitation source. The plate is measured twice with the excitation at 355 nm and at the emission with a delay of 100 ns and a gate of 100 ns, total exposure time 10 s at 730 (bandwidth 30 nm) or 645 nm (bandwidth 75 nm), respectively. The FRET signal is calculated as follows: FRET=T730-Alexa730-P(T645-B645) with P=Ru730-B730/Ru645-B645, where T730 is the test well measured at 730 nM, T645 is the test well measured at 645 nm, B730 and B645 are the buffer controls at 730 nm and 645 nm, respectively. cAMP content is determined from the function of a standard curve spanning from 10 μM to 0.13 nM cAMP.
(§2) EC50 values were determined using Activity Base analysis (ID Business Solution, Limited). The EC50 values for a wide range of cannabinoid agonists generated from this assay were in agreement with the values published in the scientific literature.

human CB1 receptor = human CB1 receptor (Homo sapiens (Human), UniProt P21554); experiment: cAMP assay, CHO cells expressing human CB1 receptors; format: cell-based; conditions: functional cAMP assay, CHO cells expressing human CB1; read-out: human CB1 EC50
Experimental: as §1, §2

Sequence of human CB2 receptor (P34972 whole entry): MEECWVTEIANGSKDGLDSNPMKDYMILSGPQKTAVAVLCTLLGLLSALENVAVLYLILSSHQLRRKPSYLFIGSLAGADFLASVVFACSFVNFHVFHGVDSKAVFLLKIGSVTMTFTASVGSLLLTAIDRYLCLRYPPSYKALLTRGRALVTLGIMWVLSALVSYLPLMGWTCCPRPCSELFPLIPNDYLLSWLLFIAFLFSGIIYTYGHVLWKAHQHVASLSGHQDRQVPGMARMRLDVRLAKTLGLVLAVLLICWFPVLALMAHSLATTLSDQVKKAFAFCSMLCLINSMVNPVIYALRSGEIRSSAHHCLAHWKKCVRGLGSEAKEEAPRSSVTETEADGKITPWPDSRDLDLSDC
Sequence of human CB1 receptor (P21554 whole entry): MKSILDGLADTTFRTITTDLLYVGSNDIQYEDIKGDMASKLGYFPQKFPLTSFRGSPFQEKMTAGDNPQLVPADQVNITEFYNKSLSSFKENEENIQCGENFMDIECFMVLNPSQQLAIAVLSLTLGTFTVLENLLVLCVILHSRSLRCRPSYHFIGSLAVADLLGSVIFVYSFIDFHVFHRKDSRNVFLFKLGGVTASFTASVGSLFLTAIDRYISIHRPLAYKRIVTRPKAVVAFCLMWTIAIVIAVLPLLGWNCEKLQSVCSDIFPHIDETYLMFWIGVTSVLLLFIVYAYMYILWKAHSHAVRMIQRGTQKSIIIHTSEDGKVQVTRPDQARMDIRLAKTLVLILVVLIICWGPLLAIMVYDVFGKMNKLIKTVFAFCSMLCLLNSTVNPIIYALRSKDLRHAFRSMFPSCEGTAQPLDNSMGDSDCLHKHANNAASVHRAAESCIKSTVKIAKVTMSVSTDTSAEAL

CC(C)(C)c1nc(N2CCC(F)(F)C2)c2cnn(CC(=O)c3ccccn3)c2n1 [Example 22, 2-[6-tert-Butyl-4-(3,3-difluoro-pyrrolidin-1-yl)-pyrazolo[3,4-d]pyrimidin-1-yl]-1-pyridin-2-yl-ethanone]
EC50 (human CB2 receptor): 8.4 nM | EC50 (human CB1 receptor): > 10000 nM

Cn1nnnc1Cn1ncc2c(N3CCC(F)(F)C3)nc(C(C)(C)C)nc21 [Example 15, 6-tert-Butyl-4-(3,3-difluoro-pyrrolidin-1-yl)-1-(1-methyl-1H-tetrazol-5-ylmethyl)-1H-pyrazolo[3,4-d]pyrimidine]
EC50 (human CB2 receptor): 0.9 nM | EC50 (human CB1 receptor): > 10000 nM

Cc1nonc1Cn1ncc2c(N3CCC(F)(F)C3)cc(C3CC3)nc21 [Example 28, 6-Cyclopropyl-4-(3,3-difluoro-pyrrolidin-1-yl)-1-(4-methyl-furazan-3-ylmethyl)-1H-pyrazolo[3,4-b]pyridine]
EC50 (human CB2 receptor): 1.9 nM | EC50 (human CB1 receptor): > 10000 nM

COC[C@H]1CCCN1c1nc(C(C)(C)C)nc2c1cnn2Cc1nonc1C [Example 36, 6-tert-Butyl-4-((R)-2-methoxymethyl-pyrrolidin-1-yl)-1-(4-methyl-furazan-3-ylmethyl)-1H-pyrazolo[3,4-d]pyrimidine]
EC50 (human CB2 receptor): 1.4 nM | EC50 (human CB1 receptor): > 10000 nM

CC(C)(C)c1nc(N2CCC(F)(F)C2)c2cnn(Cc3ccccc3)c2n1 [Example 2, 1-Benzyl-6-tert-butyl-4-(3,3-difluoro-pyrrolidin-1-yl)-1H-pyrazolo[3,4-d]pyrimidine]
EC50 (human CB2 receptor): 3.3 nM | EC50 (human CB1 receptor): > 10000 nM

CC(C)(C)c1nc(N2CCC(F)(F)C2)c2cnn(C3CS(=O)(=O)C3)c2n1 [Example 13, 6-tert-Butyl-4-(3,3-difluoro-pyrrolidin-1-yl)-1-(1,1-dioxo-1λ^6-thietan-3-yl)-1H-pyrazolo[3,4-d]pyrimidine]
EC50 (human CB2 receptor): 19.6 nM | EC50 (human CB1 receptor): > 10000 nM

CC(C)(C)c1nc(N2CCC(F)(F)C2)c2cnn(Cc3ccccc3Cl)c2n1 [Example 4, 6-tert-Butyl-1-[(2-chlorophenyl)methyl]-4-(3,3-difluoro-pyrrolidin-1-yl)-1H-pyrazolo[3,4-d]pyrimidine]
EC50 (human CB2 receptor): 4.2 nM | EC50 (human CB1 receptor): > 10000 nM

CC(C)(C)c1nc(N2CCC(F)(F)C2)c2cnn(CCc3ccccc3)c2n1 [Example 8, 6-tert-Butyl-4-(3,3-difluoro-pyrrolidin-1-yl)-1-phenethyl-1H-pyrazolo[3,4-d]pyrimidine]
EC50 (human CB2 receptor): 5.4 nM | EC50 (human CB1 receptor): > 10000 nM

Cc1nonc1CO[C@H]1CCN(c2nc(C(C)(C)C)nc3c2cnn3Cc2nonc2C)C1 [Example 26, 6-tert-Butyl-4-[(S)-3-(4-methyl-furazan-3-ylmethoxy)-pyrrolidin-1-yl]-1-(4-methyl-furazan-3-ylmethyl)-1H-pyrazolo[3,4-d]pyrimidine]
EC50 (human CB2 receptor): 35.6 nM | EC50 (human CB1 receptor): > 10000 nM

— patent US9512132B2, “Pyrazole compounds as CB2 agonists” (Hoffmann-La Roche Inc., priority 2013, dated 2016)
